The structures appear in SMILES notation.

The test has as its target T1, Glutamine--fructose-6-phosphate aminotransferase [isomerizing] (Escherichia coli (strain K12), UniProt P17169).
T1 sequence (P17169 whole entry): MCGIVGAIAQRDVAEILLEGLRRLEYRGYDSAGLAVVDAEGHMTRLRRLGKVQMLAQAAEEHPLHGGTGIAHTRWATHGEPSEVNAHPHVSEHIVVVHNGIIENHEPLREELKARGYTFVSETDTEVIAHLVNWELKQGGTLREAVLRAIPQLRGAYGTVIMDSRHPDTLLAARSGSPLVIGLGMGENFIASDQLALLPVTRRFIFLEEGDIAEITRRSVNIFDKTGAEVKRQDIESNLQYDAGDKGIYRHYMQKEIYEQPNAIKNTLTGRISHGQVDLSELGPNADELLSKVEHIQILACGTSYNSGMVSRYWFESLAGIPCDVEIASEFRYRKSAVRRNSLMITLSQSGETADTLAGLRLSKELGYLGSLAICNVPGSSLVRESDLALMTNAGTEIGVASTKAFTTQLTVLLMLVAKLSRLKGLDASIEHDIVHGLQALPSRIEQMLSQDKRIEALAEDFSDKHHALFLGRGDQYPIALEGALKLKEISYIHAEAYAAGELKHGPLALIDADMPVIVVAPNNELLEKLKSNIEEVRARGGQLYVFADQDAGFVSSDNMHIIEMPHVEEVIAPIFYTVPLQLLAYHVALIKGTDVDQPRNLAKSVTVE
With `N[C@@H](CNC(=O)/C=C/C(=O)O)C(=O)O` [(E)-4-[[(2S)-2-azaniumyl-2-carboxylatoethyl]amino]-4-oxobut-2-enoate], the Ki – broadly, the equilibrium dissociation constant of an inhibitor or competing ligand from its target – stood at 55100 nM.
For the molecule `COC(=O)/C=C/C(=O)NC[C@H](N)C(=O)O` [(2S)-2-azaniumyl-3-[[(E)-4-methoxy-4-oxobut-2-enoyl]amino]propanoate], the affinity corresponds to a Ki of 350 nM.
As for `N#[N+][CH-]C(=O)CC[C@H](N)C(=O)NCC(=O)O` [(Z,5S)-5-amino-6-(carboxymethylamino)-1-diazonio-6-oxohex-1-en-2-olate], affinity was put at a Ki of 1400 nM. This Ki lies about 4-fold higher than the previous one.

The values above are taken from BindingDB's records for doi:10.1021/bi00407a006 (Enscp, 1988).
